Measurements as given in patent US5866597A, “Use of triazine compounds for the treatment of memory and learning disorders” (Glaxo Wellcome Inc., priority 1993, dated 1999).

Tests used:
[1] = tested on: scopolamine-induced deficit in rats; test: Light-dark box memory test in rats, sub-acute dosing: pre-training, pre-training and pre-retest, or four pre-treatments and before training and retest (Table 5); type: in vivo, Male Wistar rats; conditions: for Mean latency Day 5 / Mean latency Day 6: ± SEM
Description: Male Wistar rats obtained from Charles River were used. They were housed under controlled conditions (temperature 21±2 deg. C., humidity approx. 50%, 12 hour light/dark cycle, food and water ad lib) for one week before use. On the day before test the rats were permanently housed in groups of six. Food and water were supplied ad lib. On the test day, animals were weighed and then dosed either 30 minutes before test (midazolam), one hour before test (compound A) or immediately after test.
In the sub-acute dosing regimen (see `Procedure`) the rats, housed as above, received six doses of drug or vehicle by the oral route, each 24 hours apart.
All drugs were dissolved or suspended in 0.25% (w/v) aqueous celacol, and administered orally (by gavage), i.p. or s.c. The dose volume was 5 ml/kg for all routes.
An identical apparatus to that described in Example 1 was used, except that the smaller box measured 370 mm×260 mm×190 mm.
This consisted of training as described for mice under section (d) of Example 1.
The procedure was identical with that described above, except that seven groups of rats received compound A or control pre-treatment as 6 oral doses each 24 hours apart, as follows.
Training took place 1 hour after the fifth dose i.e. on day 5. […] The usual retest was performed 24 hours later (on day 6), one hour after the sixth oral treatment.
This was as described under section (e) of Example 1.
The mean latency to enter the dark box±standard error of the mean was calculated from a group of 24 animals (controls in first block) or 12 animals (all other treatments). For a given treatment, figures in the columns labelled `Day 5` and `Day 6` show the mean latencies taken from the same group of animals. The difference between data obtained on the two days is illustrated by showing the % decrease, and the data compared using the Mann-Whitney U-test.

[2] = tested on: scopolamine-induced dry mouth in rats; test: Salivation measurement in rats (Table 6); type: in vivo, Male Wistar rats; conditions: for Mean salivation (blot diameter): ± SEM
Description: 15 minutes before observation. Under these conditions, which were identical to those used in the learning experiments described in Example 2, changes in salivation and pupil diameter were measured. Salivation was measured by placing a piece of folded filter paper in the rat's mouth and measuring the diameter of the blot in mm after 1 minute. Pupil diameter was measured using a magnifying glass and graticule under normal lighting conditions. For both measures, comparisons were made between control and drug-treated groups using a Student's T-test on independent samples.
Groups of 6 animals were used.

[3] = saline + compound A 2.5 mg/kg p.o. days 1-6
[4] = saline + compound A 10 mg/kg p.o. day 5 only
[5] = saline + compound A 10 mg/kg p.o. days 1-6
[6] = saline + compound A 10 mg/kg p.o. days 5 and 6
[7] = saline + compound A 40 mg/kg p.o. day 5 only
[8] = saline + compound A 40 mg/kg p.o. days 5 and 6
[9] = scopolamine 0.1 mg/kg s.c. + compound A 2.5 mg/kg p.o. days 1-6
[10] = scopolamine 0.1 mg/kg s.c. + compound A 10 mg/kg p.o. day 5 only
[11] = scopolamine 0.1 mg/kg s.c. + compound A 10 mg/kg p.o. days 1-6
[12] = scopolamine 0.1 mg/kg s.c. + compound A 10 mg/kg p.o. days 5 and 6
[13] = scopolamine 0.1 mg/kg s.c. + compound A 40 mg/kg p.o. day 5 only
[14] = scopolamine 0.1 mg/kg s.c. + compound A 40 mg/kg p.o. days 5 and 6

Structure (SMILES): Nc1nnc(-c2cccc(Cl)c2Cl)c(N)n1 [Compound A, 3,5-Diamino-6-(2,3-dichlorophenyl)-1,2,4-triazine]
- Effect on scopolamine-induced deficit ([1]; compound A single dose 10 mg/kg before the learning trial): did not alter the scopolamine-induced deficit
- Diff. between days, % ([1]; saline + compound A 2.5 mg/kg p.o. days 1-6, p <0.01): 46%
- Mean latency Day 5 [1, 3]: 35.3 ± 3.7 s
- Mean latency Day 6 [1, 3]: 19.3 ± 2.5 s
- Diff. between days, % ([1]; saline + compound A 10 mg/kg p.o. day 5 only, p <0.001): 52%
- Mean latency Day 5 [1, 4]: 39.8 ± 3.9 s
- Mean latency Day 6 [1, 4]: 19.3 ± 2.5 s
- Diff. between days, % ([1]; saline + compound A 10 mg/kg p.o. days 1-6, p <0.01): 44%
- Mean latency Day 5 [1, 5]: 34.3 ± 3.6 s
- Mean latency Day 6 [1, 5]: 19.1 ± 3.4 s
- Diff. between days, % ([1]; saline + compound A 10 mg/kg p.o. days 5 and 6, p <0.001): 48%
- Mean latency Day 5 [1, 6]: 37.2 ± 3.1 s
- Mean latency Day 6 [1, 6]: 19.3 ± 2.6 s
- Diff. between days, % ([1]; saline + compound A 40 mg/kg p.o. day 5 only, p <0.01): 45%
- Mean latency Day 5 [1, 7]: 35.2 ± 3.4 s
- Mean latency Day 6 [1, 7]: 19.3 ± 3.4 s
- Diff. between days, % ([1]; saline + compound A 40 mg/kg p.o. days 5 and 6, p <0.001): 50%
- Mean latency Day 5 [1, 8]: 36.0 ± 3.2 s
- Mean latency Day 6 [1, 8]: 17.8 ± 2.2 s
- Diff. between days, % ([1]; scopolamine 0.1 mg/kg s.c. + compound A 2.5 mg/kg p.o. days 1-6, p NS): 16%
- Mean latency Day 5 [1, 9]: 33.8 ± 3.0 s
- Mean latency Day 6 [1, 9]: 28.4 ± 3.4 s
- Diff. between days, % ([1]; scopolamine 0.1 mg/kg s.c. + compound A 10 mg/kg p.o. day 5 only, p NS): -4%
- Mean latency Day 5 [1, 10]: 34.3 ± 2.8 s
- Mean latency Day 6 [1, 10]: 15.8 ± 4.5 s
- Diff. between days, % ([1]; scopolamine 0.1 mg/kg s.c. + compound A 10 mg/kg p.o. days 1-6, p <0.01): 41%
- Mean latency Day 5 [1, 11]: 35.4 ± 3.2 s
- Mean latency Day 6 [1, 11]: 20.8 ± 3.6 s
- Diff. between days, % ([1]; scopolamine 0.1 mg/kg s.c. + compound A 10 mg/kg p.o. days 5 and 6, p NS (0.1)): 28%
- Mean latency Day 5 [1, 12]: 38.2 ± 4.3 s
- Mean latency Day 6 [1, 12]: 27.7 ± 3.5 s
- Diff. between days, % ([1]; scopolamine 0.1 mg/kg s.c. + compound A 40 mg/kg p.o. day 5 only, p printed #0.001): 46%
- Mean latency Day 5 [1, 13]: 33.3 ± 2.6 s
- Mean latency Day 6 [1, 13]: 18.0 ± 2.0 s
- Diff. between days, % ([1]; scopolamine 0.1 mg/kg s.c. + compound A 40 mg/kg p.o. days 5 and 6, p <0.01): 48%
- Mean latency Day 5 [1, 14]: 33.6 ± 3.6 s
- Mean latency Day 6 [1, 14]: 17.5 ± 2.5 s
- Mean salivation (blot diameter) ([2]; compound A 10 mg/kg p.o. + saline s.c.): 8.75 ± 1.11 mm
- Mean salivation (blot diameter) ([2]; compound A 40 mg/kg p.o. + saline s.c.): 8.25 ± 0.63 mm
- Mean salivation (blot diameter) ([2]; compound A 40 mg/kg p.o. + scopolamine 0.1 mg/kg s.c.): 2.13 ± 0.63 mm
- Influence on scopolamine-induced change in salivation ([2]; compound A pretreatment, p>0.05 vs vehicle): no influence on the scopolamine-induced changes
